In paper PMC9063808, “Structural insights into the calcium dependence of Stig cyclases” (RSC Advances, 2019):

Molecular target: T1, FamC1 (Fischerella ambigua, UniProt A0A076N4W8, N137A)
T1 construct: gene ambU4; recombinant; homodimer in crystal
Test: X-ray crystallography, […] A
Details: Ca1 site empty, Ca2 bound; substrate-binding pocket; ligand came from the crystallization solution, not added on purpose

T1 sequence (A0A076N4W8 entry or part of it N137A): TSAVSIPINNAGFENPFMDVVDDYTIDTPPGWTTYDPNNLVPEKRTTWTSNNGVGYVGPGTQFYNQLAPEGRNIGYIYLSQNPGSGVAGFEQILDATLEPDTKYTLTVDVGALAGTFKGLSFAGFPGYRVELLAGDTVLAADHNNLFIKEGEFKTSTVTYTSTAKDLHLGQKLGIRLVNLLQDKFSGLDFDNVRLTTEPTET

## N=C(N)NCCC[C@@H]1NC(=O)[C@H]2CCCN2C1=O [CI-4]
  X-ray crystallography, 1.48 A: The N137A crystal was grown in the same crystallization condition and one molecule of CI-4
